Assay results published in ChEMBL document CHEMBL3997846, “Synthesis and activity of nucleoside-based antiprotozoan compounds” (Bioorg Med Chem, 2017).
pIC50: −log10 of the molar value.

What was measured:
[1] = test system: Trypanosoma brucei rhodesiense; assay: Antitrypanosomal activity against bloodstream forms of Trypanosoma brucei rhodesiense STIB900 trypomastigotes after 72 hrs by alamar blue assay; format: functional; conditions: STIB900, 72 h
[2] = Selectivity index, ratio of IC50 for rat L6 cells to IC50 for bloodstream forms of Trypanosoma brucei rhodesiense STIB900 trypomastigotes; format: toxicity; conditions: read-out: Ratio IC50
Trypanosoma cruzi = assay: Antitrypanosomal activity against Trypanosoma cruzi Tulahuen strain C2C4 amastigote forms harboring LacZ infected in rat L6 cells after 96 hrs by CPRG/Nonidet reagent based photometric method; format: functional, cell-based; conditions: Tulahuen strain C2C4, L6, 96 h
[3] = Selectivity index, ratio of IC50 for rat L6 cells to IC50 for Trypanosoma cruzi Tulahuen strain C2C4 amastigote forms harboring LacZ infected in rat L6 cells; format: toxicity, cell-based; conditions: read-out: Ratio IC50
Leishmania donovani = assay: Antileishmanial activity against Leishmania donovani MHOM/SD/62/ISCL2D axenic amastigotes after 72 hrs by alamar blue assay; format: functional
[4] = Selectivity index, ratio of IC50 for rat L6 cells to IC50 for Leishmania donovani MHOM/SD/62/ISCL2D axenic amastigotes; format: toxicity; conditions: read-out: Ratio IC50
L6 = assay: Cytotoxicity against rat L6 cells assessed as growth inhibition after 72 hrs by alamar blue assay; format: cell-based; conditions: L6, 72 h
Plasmodium falciparum = assay: Antiplasmodial activity against chloroquine resistant Plasmodium falciparum K1 erythrocytic stage assessed as reduction in [3H]hypoxanthine incorporation after 48 hrs by liquid scintillation counting assay; format: functional
[5] = Selectivity index, ratio of IC50 for rat L6 cells to IC50 for chloroquine resistant Plasmodium falciparum K1 erythrocytic stage; format: toxicity; conditions: read-out: Ratio IC50

Structure (SMILES)	pIC50 [1]	selectivity ratio [2]	pIC50 (Trypanosoma cruzi)	selectivity ratio [3]	pIC50 (Leishmania donovani)	selectivity ratio [4]	pIC50 (L6)	pIC50 (Plasmodium falciparum)	selectivity ratio [5]
C[C@H]1O[C@@H](n2cnc3c(N)nc(I)nc32)[C@H](O)[C@@H]1O	4.57	4	3.92	0.9	3.68	0.5			
CC(=O)NC[C@H]1O[C@@H](n2cnc3c(N)nc(F)nc32)[C@H](OC(C)=O)[C@@H]1OC(C)=O	3.94	1	3.97	1	< 3.62	< 0.6	3.86	4.43	4
CC(=O)O[C@@H]1[C@H](OC(C)=O)[C@@H](CN2C(=O)c3ccccc3C2=O)O[C@H]1n1cnc2c(N)nc(Cl)nc21	3.79	0.9	4.00	1	3.86	1	3.84	4.64	6
CC(=O)O[C@@H]1[C@H](OC(C)=O)[C@@H](CN=[N+]=[N-])O[C@H]1n1cnc2c(N)nc(Cl)nc21	4.19	2	4.03	2	3.94	1	3.85	4.89	11
C[S+]([O-])C[C@H]1O[C@@H](n2cnc3c(N)nc(Cl)nc32)[C@H](O)[C@@H]1O (stereo partly drawn)	4.12	3	< 3.59	< 1	< 3.59	< 1	3.59	4.85	18
CNc1nc(I)nc2c1ncn2[C@@H]1O[C@H](CSC)[C@@H](O)[C@H]1O	4.68	6	3.98	1	4.00	1			
CSC[C@H]1O[C@@H](n2cnc3c(N(C)N=O)nc(F)nc32)[C@H](O)[C@@H]1O	4.25	2	3.89	0.9	3.72	0.6			
C[C@H]1O[C@@H](n2cnc3c(N)nc(Cl)nc32)[C@H](O)[C@@H]1O	4.08	2	3.72	0.8	4.31	3			
CSC[C@H]1O[C@@H](n2cnc3c(N)nc(NN)nc32)[C@H](O)[C@@H]1O	3.83	1	3.80	1	3.76	1			
C[C@H]1O[C@@H](n2cnc3c(N)nc(N)nc32)[C@H](O)[C@@H]1O	3.65	2	< 3.47	< 1	4.29	7			
CSC[C@H]1O[C@@H](n2cnc3c(N)nc(C#N)nc32)[C@H](O)[C@@H]1O	4.18	2	3.82	1	3.58	0.6			
C[C@H]1O[C@@H](n2cnc3c(N)nc(F)nc32)[C@H](O)[C@@H]1O	4.19	< 0.1	5.15	0.3	6.06	2			
C[C@H]1O[C@@H](n2cnc3c(N)nc(NN)nc32)[C@H](O)[C@@H]1O	3.88	1	3.83	1	4.14	3			
CNc1nc(C#N)nc2c1ncn2[C@@H]1O[C@H](C)[C@@H](O)[C@H]1O	3.95	0.8	4.35	2	3.83	0.6			
CNc1nc(I)nc2c1ncn2[C@@H]1O[C@H](C)[C@@H](O)[C@H]1O	4.31	3	3.90	1	3.70	0.7			
C[C@H]1O[C@@H](n2cnc3c(N)nc(C#N)nc32)[C@H](O)[C@@H]1O	4.10	2	3.84	1	4.00	2			
CSC[C@H]1O[C@@H](n2cnc3c(N)nc(Cl)nc32)[C@H](O)[C@@H]1O	3.69	1	< 3.57	< 1	4.22	5			
C[C@H]1O[C@@H](n2cnc3c(N)nc(N=[N+]=[N-])nc32)[C@H](O)[C@@H]1O	3.86	1	3.78	1	3.90	2			
CCCCCCCCCCCCCCCCOP(=O)([O-])OCC[N+](C)(C)C [MILTEFOSINE]					6.52		3.86		
CNc1nc(F)nc2c1ncn2[C@@H]1O[C@H](C)[C@@H](O)[C@H]1O	3.71	1	4.70	12	< 3.45	0.7			
CNc1nc(C#N)nc2c1ncn2[C@@H]1O[C@H](CSC)[C@@H](O)[C@H]1O	4.52	0.8	4.60	1	4.66	1			
O=C(Cn1ccnc1[N+](=O)[O-])NCc1ccccc1 [BENZNIDAZOLE]			5.79				< 3.41		
CSC[C@H]1O[C@@H](n2cnc3c(/N=C/N(C)C)nc(F)nc32)[C@H](O)[C@@H]1O	4.21	< 0.1	3.94	< 0.1	5.60	0.6			
CCN(CC)CCCC(C)Nc1ccnc2cc(Cl)ccc12 (stereo not drawn) [CHLOROQUINE]							4.04		
CSC[C@H]1O[C@@H](n2cnc3c(N)nc(I)nc32)[C@H](O)[C@@H]1O	5.30	27	4.06	2	3.88	1			
CNc1ncnc2c1ncn2[C@@H]1O[C@H](C)[C@@H](O)[C@H]1O	3.69	1	3.71	1	< 3.42	< 0.7			
CSC[C@H]1O[C@@H](n2cnc3c(N)nc(N=[N+]=[N-])nc32)[C@H](O)[C@@H]1O	4.29	5	3.84	2	3.54	0.8			
CSC[C@H]1O[C@@H](n2cnc3c(N)nc(F)nc32)[C@H](O)[C@@H]1O	5.37	0.1	5.59	0.2	6.10	0.7			
CNc1ncnc2c1ncn2[C@@H]1O[C@H](CSC)[C@@H](O)[C@H]1O	4.80	10	3.72	0.8	< 3.49	< 0.5			
